Assays:
[1] = system: human platelet-poor plasma; assay: Recalcification time assay; assay type: biochemical; settings: for Absorbance after Reaction: 650 nm after 30 min, NC2 0.2094 ± 0.0305; for Half Time at 1/2 Maximum: NC2 740 ± 20 s; for Fold of Half Time: NC2 = 1.00; for plasma coagulation time: 1–20 μg
Description: Figure 5 Effect of PA (A), IVA (B), and 4-HA (C) on recalcification time and plasma density. Human platelet-poor plasma was mixed with PA, IVA, and 4-HA dissolved in DMSO in 96-well plates and incubated for 10 min at 37 °C. Thereafter, 100 mM pre-warmed CaCl2 was added to the mixture and absorbance was taken every 60 s at 650 nm for 30 min in a microplate reader. The plasma density was presented as the optical density at 650 nm after 30 min. The half time (s) was presented as reaching a half-maximum absorbance value. NC1, plasma only; NC2, plasma treated with CaCl2; PC, positive control group (1 U heparin); PA1–20, 1–20 μg of PA treated; IVA1–20, 1–20 μg of IVA treated; 4-HA1–20, 1–20 μg of 4-HA treated.
Recalcification time was measured in a 96-well plate, according to a previously described method, with slight modifications. First, 50 μL of human platelet-poor plasma was mixed with 50 μL of the compounds, vehicle as NC2, or 1 U heparin as PC, and incubated at 37 °C for 10 min. Thereafter, 100 mM pre-warmed CaCl2 was added to the mixture and absorbance was measured at 650 nm every 1 min for 30 min using a microplate reader. The plasma density was presented as the absorbance at 650 nm after 30 min. The half time was presented as reaching a half-maximum absorbance value.

[2] = system: thrombin-activated platelets; assay: ATP release assay; assay type: cell-based; settings: 10–100 μg, vs thrombin group, p < 0.05; except 10 μg of 4-HA (p = 0.915)
Description: Figure 7 Effect of PA, IVA, and 4-HA on granule secretion. Aliquots of washed platelets pre-treated with or without the compounds for 5 min were stimulated with 0.25 U/mL thrombin at 37 °C for 5 min. After stimulation, the platelets were centrifuged, and the supernatants were collected. Using these supernatants, ATP (A) or serotonin (B) release was determined according to the manufacturer’s instructions. Each value is the mean ± SD of triplicate measurements. # p < 0.01, compared to each control groups. * p < 0.05 and ** p < 0.01, compared to only thrombin-treated control groups. Thrombin, thrombin treated only; PA10-100, 10–100 μg of PA treated; IVA10-100, 10–100 μg of IVA treated; 4-HA10-100, 10–100 μg of 4-HA treated.
Aliquots of washed platelets (250 × 10^6/mL) pre-treated with the compounds for 5 min were activated with 0.25 U/mL of thrombin for 5 min at 37 °C, according to a previously described method, with slight modifications. After activation, the supernatant from centrifuged platelets was used. ATP release was evaluated using an ATP assay kit (Biomedical Research Service Center, Buffalo, NY, USA), according to the manufacturer’s instructions.

Compound	half-life and plasma coagulation time [1]	Absorbance after Reaction ([1]; 1 μg)	Absorbance after Reaction ([1]; 2 μg)	Half Time at 1/2 Maximum ([1]; 2 μg) [s]	Fold of Half Time ([1]; 2 μg)	Absorbance after Reaction ([1]; 5 μg)	Absorbance after Reaction ([1]; 10 μg)	Absorbance after Reaction ([1]; 20 μg)	plasma coagulation time [1]	thrombin-stimulated ATP secretion levels [2]	Half Time at 1/2 Maximum ([1]; 1 μg) [s]	Fold of Half Time ([1]; 1 μg)	Half Time at 1/2 Maximum ([1]; 5 μg) [s]	Fold of Half Time ([1]; 5 μg)	Half Time at 1/2 Maximum ([1]; 10 μg) [s]	Fold of Half Time ([1]; 10 μg)	final plasma density ([1]; after 1800 s)	initial response of plasma coagulation (fold of half time) ([1]; range over doses, promoted (shorter half time))	plasma coagulation for 1800 s ([1]; 5–20 μg)
O=C(O)c1ccc(O)cc1 [4-HA, 4-hydroxybenzoic acid]	significant delay	0.1424 ± 0.0122	0.1086 ± 0.0083	950 ± 70	1.28 ± 0.09	0.0866 ± 0.0051	0.0233 ± 0.0014	0.0205 ± 0.0029	partially prolonged	significantly decreased	–	–	–	–	–	–	–	–	–
COc1ccc(C(=O)O)cc1O [IVA, isovanillic acid]	–	0.1882 ± 0.0097	0.1732 ± 0.0106	–	–	0.1575 ± 0.0052	0.1377 ± 0.0071	0.0462 ± 0.0035	partially prolonged	significantly decreased	510 ± 25	0.69 ± 0.03	615 ± 20	0.83 ± 0.03	355 ± 30	0.48 ± 0.04	significantly decreased	0.48–0.83 fold	–
O=C(O)c1ccc(O)c(O)c1 [PA, protocatechuic acid]	significant delay	0.1898 ± 0.0227	0.0201 ± 0.0012	–	–	0.0044 ± 0.0009	−0.0047 ± 0.0004	−0.0103 ± 0.0011	–	significantly decreased	1220 ± 90	1.65 ± 0.12	–	–	–	–	–	–	completely delayed

Reference: paper PMC9181887, “In Vitro Antithrombotic, Hematological Toxicity, and Inhibitor Studies of Protocatechuic, Isovanillic, and p-Hydroxybenzoic Acids from Maclura tricuspidata (Carr.) Bur” (Molecules, 2022)
